Read-outs that look alike come from different tables or passages of the source. Each block holds one compound with its values, some of them ahead of it.
Columns and labels:
[1] = clinical; settings: both, human, plasma, % fu, fraction unbound (mean (SD)), Day 1, 2 h
Protocol: (§1) Participants entered the study site on the morning of Day 1 and remained there until after collection of the 96 hours PK sample on Day 5. […] In addition, blood samples for determination of the plasma protein binding (PPB) were collected.
(§2) For all cohorts, 2-hours fraction unbound values were used to derive the unbound plasma concentrations and these unbound concentrations were used to derive unbound PK parameters.

[2] = test system: plasma protein; assay: clinical; settings: Day 1, 2 h
Protocol: as §1, §2

[3] = for mean AUC∞ compared to normal hepatic function / mean Cmax compared to normal hepatic function / mean Cmax,unbound compared to normal hepatic function: arithmetic means
Source text: (§3) Participants were screened for eligibility for study entry. The diagnosis of hepatic impairment was based on medical history, a Child-Pugh Clinical Assessment Score of 5 to 6 (Grade A, mild hepatic impairment), 7 to 9 (Grade B, moderate hepatic impairment), and 10 to 15 (Grade C, severe hepatic impairment), and the presence of physical signs (liver firmness to palpitation, splenic enlargement, spider angioma, palmar erythema, parotid hypertrophy, testicular atrophy, or gynecomastia) or other modalities (computed tomography, ultrasound, magnetic resonance imaging, radionuclide liver/spleen scan or abdominal laparoscopy, or liver biopsy). The underlying disease leading to hepatic impairment was documented (e.g., hepatitis B, hepatitis C, alcoholic steatohepatitis, nonalcoholic fatty liver disease [hereditary/metabolic], or other). Hepatic encephalopathy grading was done by the Principal Investigator. The individual components of the Child-Pugh Clinical Assessment Score were documented. Participants with liver transplant were excluded.
(§4) The clinical study of Example 1 consisted of a screening phase (within 21 days before study intervention administration); an open-label treatment phase (Day 1 to Day 5) including the end-of-study (EOS) or withdrawal assessments (performed on Day 5 or upon early withdrawal). The study duration for each participant was approximately 4 weeks from screening (Day-21 to Day-1) to EOS assessments.
(§5) Healthy men and women between 18 and 79 years of age, inclusive; with a body mass index (BMI) between 18 and 38 kg/m^2, inclusive, and a body weight of not less than 50 kg were enrolled in the study according to their hepatic function. The degree of hepatic impairment was based on Child Pugh's classification. Using this classification, participants were grouped on the basis of 2 clinical features (hepatic encephalopathy and ascites) and 3 laboratory-based parameters (albumin, bilirubin, and prothrombin time).
(§6) The study included 24 human patients divided into 3 different cohorts: • Cohort 1:8 healthy participants with normal hepatic function and no evidence of liver damage and no evidence of liver damage, • Cohort 2:8 participants with mild hepatic impairment (having a Child-Pugh score of 5 to 6), and • Cohort 3:8 participants with moderate hepatic impairment (Child-Pugh score of 7 to 9).
(§7) Based on hepatic impairment classified during screening, 8 participants with mild hepatic impairment (Cohort 2) and 8 participants with moderate hepatic impairment (Cohort 3) were enrolled. After 8 participants each in Cohort 2 and Cohort 3 had completed study related procedures including the 96 hours PK sample, participants with normal hepatic function (Cohort 1) were enrolled. A group matching procedure was used to demographically match healthy participants having normal hepatic function with respect to sex, age, and weight to the participants enrolled in Cohort 2 and Cohort 3. […] Participants in the control group (Cohort 1) who tested positive for Hepatitis B surface antigen (HbsAg) or Hepatitis C antibodies were not permitted in the study.
(§8) In the normal hepatic function group (Cohort 1), at least 3 participants with an individual value above and at least 3 participants with an individual value below the mean age/mean body weight values of the combined mild (Cohort 2) and moderate (Cohort 3) hepatic impairment groups were enrolled. Two to 4 females were enrolled in each of the cohorts.
(§9) Participants remained in supine position from the predose assessments until 4-hour postdose but were allowed short upright stints for pressing needs (e.g., bathroom visits) and during consumption of meal.

[4] = clinical; settings: both, human, in vivo
Source text: as §3, §4, §5, §6, §7, §8, §9

[5] = Estimated contribution of active metabolites to efficacy of seltorexant; settings: active metabolite
[6] = 10 mg, Cohort 3 moderate hepatic impairment
[7] = 20 mg, Cohort 1 normal hepatic function
[8] = 20 mg, Cohort 2 mild hepatic impairment
[9] = Cohort 1 normal hepatic function
[10] = Cohort 2 mild hepatic impairment
[11] = Cohort 3 moderate hepatic impairment
[12] = dose normalized moderate hepatic impairment vs normal, total
[13] = dose normalized moderate hepatic impairment vs normal, unbound
[14] = mild hepatic impairment vs normal, total
[15] = mild hepatic impairment vs normal, unbound
[16] = 10 mg, AUClast, geometric mean, Cohort 3 (Test) moderate hepatic impairment, 10 mg dose normalized to 20 mg, total
[17] = 10 mg, AUClast, geometric mean, Cohort 3 (Test) moderate hepatic impairment, 10 mg dose normalized to 20 mg, unbound
[18] = 10 mg, AUC∞ (mean (SD)), Cohort 3 moderate hepatic impairment, 10 mg dose normalized to 20 mg, total in plasma
[19] = 10 mg, AUC∞, geometric mean, Cohort 3 (Test) moderate hepatic impairment, 10 mg dose normalized to 20 mg, total
[20] = 10 mg, AUC∞, geometric mean, Cohort 3 (Test) moderate hepatic impairment, 10 mg dose normalized to 20 mg, unbound
[21] = 10 mg, Cmax, geometric mean, Cohort 3 (Test) moderate hepatic impairment, 10 mg dose normalized to 20 mg, total
[22] = 10 mg, Cmax, geometric mean, Cohort 3 (Test) moderate hepatic impairment, 10 mg dose normalized to 20 mg, unbound
[23] = 10 mg, […], Cohort 3 moderate hepatic impairment, 10 mg dose normalized to 20 mg, total in plasma
[24] = 20 mg, AUClast, geometric mean, Cohort 1 (Reference) normal hepatic function, total
[25] = 20 mg, AUClast, geometric mean, Cohort 1 (Reference) normal hepatic function, unbound
[26] = 20 mg, AUClast, geometric mean, Cohort 2 (Test) mild hepatic impairment, total
[27] = 20 mg, AUClast, geometric mean, Cohort 2 (Test) mild hepatic impairment, unbound
[28] = 20 mg, AUC∞, geometric mean, Cohort 1 (Reference) normal hepatic function, total
[29] = 20 mg, AUC∞, geometric mean, Cohort 1 (Reference) normal hepatic function, unbound
[30] = 20 mg, AUC∞, geometric mean, Cohort 2 (Test) mild hepatic impairment, total
[31] = 20 mg, AUC∞, geometric mean, Cohort 2 (Test) mild hepatic impairment, unbound
[32] = 20 mg, Cmax, geometric mean, Cohort 1 (Reference) normal hepatic function, total
[33] = 20 mg, Cmax, geometric mean, Cohort 1 (Reference) normal hepatic function, unbound
[34] = 20 mg, Cmax, geometric mean, Cohort 2 (Test) mild hepatic impairment, total
[35] = 20 mg, Cmax, geometric mean, Cohort 2 (Test) mild hepatic impairment, unbound

fraction unbound at 2 h [1, 6]: 0.114 | fraction unbound at 2 h [1, 7]: 0.0545 | fraction unbound at 2 h [1, 8]: 0.0707 | % fb (mean (SD)) [2, 9]: 94.6 (1.91) % | % fb (mean (SD)) [2, 10]: 92.9 (4.58) % | % fb (mean (SD)) [2, 11]: 88.6 (3.84) % | mean AUC∞ compared to normal hepatic function [3, 12]: comparable | mean Cmax compared to normal hepatic function [3, 12]: 0.78 fold | mean Cmax,unbound compared to normal hepatic function [3, 13]: 1.71 fold | Cmax compared to normal hepatic function, based on GMR [3, 12]: 0.79 fold | mean AUC∞ compared to normal hepatic function [3, 14]: 1.80 fold | mean Cmax compared to normal hepatic function [3, 14]: comparable | mean Cmax,unbound compared to normal hepatic function [3, 15]: 1.46 fold | Cmax compared to normal hepatic function, based on GMR [3, 14]: ~1.11 fold | AUC∞,unbound compared to normal hepatic function, based on GMR [3, 15]: ~1.99 fold | AUC(0-t) [4, 16]: 2380 ng·h/mL | AUC(0-t) [4, 17]: 258 ng·h/mL | AUC(0-inf) [4, 18]: 2580 ng·h/mL | AUC(0-inf) [4, 19]: 2400 ng·h/mL | AUC(0-inf) [4, 20]: 262 ng·h/mL | Cmax [4, 21]: 253 ng/mL | Cmax [4, 22]: 27.5 ng/mL | AUC(0-t) [4, 23]: 2550 ng·h/mL | Cmax [4, 23]: 261 ng/mL | AUC(0-t) [4, 24]: 2310 ng·h/mL | AUC(0-t) [4, 25]: 118 ng·h/mL | AUC(0-t) [4, 26]: 3950 ng·h/mL | AUC(0-t) [4, 27]: 234 ng·h/mL | AUC(0-inf) [4, 28]: 2320 ng·h/mL | AUC(0-inf) [4, 29]: 119 ng·h/mL | AUC(0-inf) [4, 30]: 3980 ng·h/mL | AUC(0-inf) [4, 31]: 236 ng·h/mL | Cmax [4, 32]: 320 ng/mL | Cmax [4, 33]: 16.3 ng/mL | Cmax [4, 34]: 355 ng/mL | Cmax [4, 35]: 21 ng/mL | AUC(0-t) ([4]; po, 10 mg): 1280 ng·h/mL | Cmax ([4]; po, 10 mg): 131 ng/mL | Tmax ([4]; po, 10 mg): 2.25 h | half-life ([4]; po, 10 mg): 4.07 h | AUC(0-inf) ([4]; po, 20 mg): 4860 ng·h/mL | AUC(0-t) ([4]; po, 20 mg): 4830 ng·h/mL | Cmax ([4]; po, 20 mg): 368 ng/mL | half-life ([4]; po, 20 mg): 3.44 h
Structure (SMILES): Cc1cc(CO)nc(N2CC3CN(C(=O)c4c(F)cccc4-n4nccn4)CC3C2)n1 (stereo not shown) [M12]

fraction unbound at 2 h [1, 6]: 0.0901 | fraction unbound at 2 h [1, 7]: 0.04 | fraction unbound at 2 h [1, 8]: 0.0568 | % fb (mean (SD)) [2, 9]: 96.0 (1.43) % | % fb (mean (SD)) [2, 10]: 94.3 (3.95) % | % fb (mean (SD)) [2, 11]: 91.0 (3.14) % | mean AUC∞ compared to normal hepatic function [3, 12]: 0.74 fold | mean Cmax compared to normal hepatic function [3, 12]: 0.62 fold | AUC∞ compared to normal hepatic function, based on GMR [3, 12]: ~0.83 fold | AUClast,unbound compared to normal hepatic function, based on GMR [3, 13]: ~1.82 fold | Cmax,unbound compared to normal hepatic function, based on GMR [3, 13]: ~1.48 fold | mean AUC∞ compared to normal hepatic function [3, 14]: comparable | mean Cmax compared to normal hepatic function [3, 14]: 0.75 fold | AUClast,unbound compared to normal hepatic function, based on GMR [3, 15]: ~1.25 fold | Cmax,unbound compared to normal hepatic function, based on GMR [3, 15]: 0.96 fold | AUC(0-t) [4, 16]: 620 ng·h/mL | AUC(0-t) [4, 17]: 53 ng·h/mL | AUC(0-inf) [4, 18]: 683 ng·h/mL | AUC(0-inf) [4, 19]: 674 ng·h/mL | AUC(0-inf) [4, 20]: 57.6 ng·h/mL | Cmax [4, 21]: 41.8 ng/mL | Cmax [4, 22]: 3.57 ng/mL | AUC(0-t) [4, 23]: 631 ng·h/mL | Cmax [4, 23]: 43 ng/mL | AUC(0-t) [4, 24]: 778 ng·h/mL | AUC(0-t) [4, 25]: 29 ng·h/mL | AUC(0-t) [4, 26]: 783 ng·h/mL | AUC(0-t) [4, 27]: 36.3 ng·h/mL | AUC(0-inf) [4, 28]: 812 ng·h/mL | AUC(0-inf) [4, 29]: 30.3 ng·h/mL | AUC(0-inf) [4, 30]: 807 ng·h/mL | AUC(0-inf) [4, 31]: 37.4 ng·h/mL | Cmax [4, 32]: 64.6 ng/mL | Cmax [4, 33]: 2.41 ng/mL | Cmax [4, 34]: 50 ng/mL | Cmax [4, 35]: 2.32 ng/mL | AUC(0-inf) ([4]; po, 10 mg): 342 ng·h/mL | AUC(0-t) ([4]; po, 10 mg): 315 ng·h/mL | Cmax ([4]; po, 10 mg): 21.5 ng/mL | Tmax ([4]; po, 10 mg): 2.5 h | half-life ([4]; po, 10 mg): 10.2 h | AUC(0-inf) ([4]; po, 20 mg): 851 ng·h/mL | AUC(0-t) ([4]; po, 20 mg): 827 ng·h/mL | Cmax ([4]; po, 20 mg): 51.5 ng/mL | Tmax ([4]; po, 20 mg): 2 h | half-life ([4]; po, 20 mg): 13.4 h
Structure (SMILES): Cc1nc(N2CC3CN(C(=O)c4c(F)cccc4-n4nccn4)CC3C2)nc(C)c1O (stereo not shown) [M16]
contribution to efficacy of seltorexant (activity) [5]: < 4%

— patent US20250082635A1 (Janssen Pharmaceutica NV, priority 2023, published 2025)
